Data set [1] can be described thus: Iron removal bioassay in iron-loaded (transfused) mice. In kind it is in vivo. The method, then:
DFHOPOCAM was tested for its effectiveness in removing iron from iron-loaded mice. The mice tested had undergone three transfusions over five days of heat-treated canine red blood cells. Both low i.p. doses (about 20 mg/kg) and high doses (about 200 mg/kg) were administered, in aqueous solution.
Changes in splenic, hepatic, fecal and urinary iron in transfused
male mice treated with potential iron chelators for several days

Data set [2] is described as follows: Promotion of excretion of ^238 Pu(IV) in mice. In kind it is in vivo. Particulars: for Pu / actinide removal, in words: mouse, in vivo. The method, then:
The novel chelating agents of the present invention were tested for their effectiveness in promoting excretion of ^238 Pu(IV) in mice as follows. Groups of five mice each received an intravenous injection of […] of ^238 Pu(IV) in citrate buffer, 9250 Bq/kg body wt. One hour later 30 μmole/kg of ligand (120 μmole/kg of monomeric ligands) was injected intraperitoneally in 0.5 ml of saline. The mice were killed 24 h after the Pu injection, frozen, and dissected after partial thawing. The ^238 Pu in skeleton, tissues, and separated excreta was determined by counting of the ^234 U L xrays.
^c Ligand was administered (30 μmole/kg, i.p.) at 1 hr and mice
were killed at 24 hr after injection (i.v.) of ^238 Pu(IV) citrate.
Dosage of monomers, HOPO--CO2 H and HOPO--COMe2, was 120

The next data set has as its system transferrin. The data set is described as follows: Removal of iron from transferrin. The data set is classed as biochemical. The method, then: (§1) Removal of Iron From Transferrin: The effectiveness of 3HOPOCAM as a ferri ion chelator was evaluated in terms of its potential for removing iron from transferrin. In order to account for the effect of proton competitio in the ligand strength comparisons, the relative ironbinding abilities of the ligands were ranked by the pM value, defined as -log [Fe^+3 ] of pH 7.4 solution that is 10^-5 M in total ligand and 10^-6 M in total iron. The pM for 3HOPOCAM was determined (by binding competition experiments with EDTA) to be 21.7, about 4 to 14 units lower than the pM value for siderophores containing three bidentate catechol or hydroxamate groups. […] Ligands incorporating more than two "HOPO" groups should be effective in removing iron from transferrin at even lower concentrations.

Data set [3] can be described thus: Relative iron-binding ability (pM value) by binding competition with EDTA. The method, then: as §1
Data set [4] is described as follows: Acute toxicity in mice, single i.p. injection. Particulars: mouse, in vivo, ip, Table 3, 1000 (*) or 500 (**) μmole/kg, read-out: acute toxicity (asterisk), lethality in 7 days. Here is the method:
A test of acute toxicity was also carried out, as follows. Two mice were each given a single i.p. injection of 100, 500, or 1000 μmole/kg of ligand dissolved in 0.5 to 1.0 ml of saline at pH=7.5. Sparingly soluble ligands, dispersed by sonication, were given as finely divided suspensions. After 7 days observation, the mice were killed, selected tissues were removed and fixed for histopathological examination, and unusual findings at autopsy were recorded.
^a Single or double asterisks indicate acutely toxic (50% to 100%
lethality) in 7 days after a single i.p. injection of 1000 or 500
μmole/kg, respectively.

[5] abbreviates: higher dose, about 200 mg/kg i.p.

“And” between values parts separate entries of the source, which are not always exact repeats. Equal entries are not always repeated. “Also recorded” adds a separate entry of the source.

On to `CC(=O)N(O)CCCCCNC(=O)CCC(=O)N(O)CCCCCNC(=O)CCC(=O)N(O)CCCCCNC(=O)c1cccc(=O)n1O` [DFHOPOCAM], for which, in data set [1] (20 mg/kg i.p.), the “Number Survivors” value was 10/10; the “Percent Iron Changes vs. Control, Feces” value was “+21%”; the “Percent Iron Changes vs. Control, Liver” value is -28%; the “Percent Iron Changes vs. Control, Spleen” value is recorded as -11%. Further, in data set [1] (20 mg/kg i.p.), the “Percent Iron Changes vs. Control, Urine” value is on record as “+39%”; the “Potency vs. Standard” value came out at 4.5; the “Toxic Signs” value is on record as “none”. Moreover, in data set [1] (200 mg/kg i.p.), the “Number Survivors” value is on record as 10/10; the “Percent Iron Changes vs. Control, Feces” value was “+4%”; the “Percent Iron Changes vs. Control, Liver” value is on record as -59%; the “Percent Iron Changes vs. Control, Spleen” value is -17%. Besides, in data set [1] (200 mg/kg i.p.), the “Percent Iron Changes vs. Control, Urine” value was “+93%” and the “Potency vs. Standard” value is on record as 0.8. Besides, in data set [1] (about 20 and about 200 mg/kg i.p., daily excreta, five-day recovery period), the “damage to excretory pathways from excess metabolic iron” value was “reversal of most of the damage to excretory pathways”. Moreover, the source of iron entry in data set [1] (both low and high doses) is given as “predominantly the liver”. Further, the “Potency relative to Desferal” value in data set [1] (dose not given) is given as “about 4.5”. In data set [1] (setting [5]), the “behavior and major organs” value was “not grossly affected”; the “change in fecal iron content, in words” value is listed as “little change in iron content”; the “change in urine volume” value is listed as -6%; the “decrease in liver iron” value is listed as 59%. For the same molecule, in data set [1] (setting [5]), the “depression of fecal output” value was determined as 24%, the “fall in liver weight” value came out at 14%, the “fall in spleen iron content” value came to 17% and the “increase in spleen weight” value came to 25%. Moreover, the “rise in urinary iron” value in data set [1] (setting [5]) is listed as 93%. Moreover, the “decrease in water imbibition” value in data set [1] (higher dose, about 200 mg/kg i.p., compared with low dose) is on record as “about the same order of magnitude as that seen for the low dose”. Further, the “major route of excretion” value in data set [1] (iron excretion) was “through the kidneys”. In data set [1] (low dose, about 20 mg/kg i.p.), the behavior result is listed as “not affected”; the “change in organ (spleen) weight, in words” value is listed as “not accompanied by a significant change in organ weight”; the “decline in hepatic (liver) weight” value is listed as 8%; the “decline in splenic iron” value is recorded as 11%. In data set [1] (low dose, about 20 mg/kg i.p.), the “decrease in hepatic iron” value is given as 28%, the “fall in fecal output” value is listed as 8%, the “increase in excretion of iron via the feces” value was 21% and the “increase in spleen weight” value turned out to be 4%. Besides, in data set [1] (low dose, about 20 mg/kg i.p.), the “increase in urinary iron” value was 39%, the “necropsy: size or color of major organs” value is “failed to reveal any changes in the size or color of major organs” and the “stimulation of urine production” value was 24%. Also, the “relative potency (highest fraction of iron excreted), ranking” value in data set [1] (mouse, in vivo) is recorded as “greatest”. Moreover, the “toxicity to the kidneys, ranking” value in data set [1] (of a number of compounds tested) is “least toxic to the kidneys”. Further, the “newly injected Pu excreted in 24 hr” value in data set [2] (24 hr) is 86%. Moreover, the “Pu / actinide removal, in words” value in data set [2] was “extremely effective; also recorded: most effective removal of such ions”. Further, in data set [2] (listed as HOPOsubstituted desferrioxamine), the “Pu / actinide removal, in words” value is “most effective Pu removal agent”.

Regarding `O=C(O)CN(CCN(CC(=O)O)CC(=O)O)CCN(CC(=O)O)CC(=O)O` [CaNa3 --DTPA, reference compound], the “^238 Pu Excreta (urine and feces, one value)” value in data set [2] (ligand 30 μmole/kg i.p. at 1 hr, killed 24 hr after Pu) is listed as 70% of injected ^238 Pu.

As for `O=C(NCCCNC(=O)c1cccc(=O)n1O)c1cccc(=O)n1O` [3-HOPOCAM], in the data set on transferrin, the “concentration at which iron was removed from transferrin” value is “approximately mM concentrations”. Besides, the “iron removed from transferrin” value with transferrin (30 min., 1.6 mM solution) was “about 29%”. The “pM value (-log [Fe^+3 ])” value in data set [3] (pH 7.4, 10^-5 M total ligand, 10^-6 M total iron, competition with EDTA) was determined as 21.7.

On to `O=C(NCCCN(CCCCN(CCCNC(=O)c1cccc(=O)n1O)C(=O)c1cccc(=O)n1O)C(=O)c1cccc(=O)n1O)c1cccc(=O)n1O` [3,4,3-HOPOCAM], for which the mortality at 168 h in data set [4] was in the range of 50 to 100%.

For `O=C(NCCCCN(CCCNC(=O)c1cccc(=O)n1O)C(=O)c1cccc(=O)n1O)c1cccc(=O)n1O` [3,4-HOPOCAM], the mortality at 168 h in data set [4] was 50 to 100%.

On to `CC(=O)N(O)CCCCCNC(=O)CCC(=O)N(O)CCCCCNC(=O)CCC(=O)N(O)CCCCCN` [Desferrioxamine, reference compound], for which, in data set [1] (250 mg/kg i.p.), the “Number Survivors” value was 240/240 and 150/150; the “Toxic Signs” value was “none”.

On to “transferrin: transferrin, iron source in the iron removal test”, for which the “pM value (-log [Fe^+3 ]) of transferrin” value in data set [3] (pH 7.4, assuming [HCO3^- ]=0.024M) is listed as “about 23.6”.

Take `O=C(NCc1cc(CNC(=O)c2cccc(=O)n2O)cc(CNC(=O)c2cccc(=O)n2O)c1)c1cccc(=O)n1O` [HOPO--MECAM]: the mortality at 168 h in data set [4] fell in the range of 50 to 100%.

The values above are taken from patent US4698431A, “Hydroxypyridonate chelating agents” (priority 1985, dated 1987).
